# Reference: ChEMBL document CHEMBL3885881, “DrugMatrix”
# Species: Rattus norvegicus
# Experiment: DrugMatrix - Regimen: Daily Repeat
# Assay type: toxicity, organism-based, Sprague-Dawley
# Set-up: regimen Daily Repeat, gender Male, age 6-8 weeks
# Conditions: in vivo, iv, vehicle 100 % SALINE; for ABSOLUTE BASOPHIL / ABSOLUTE EOSINOPHIL / ABSOLUTE LYMPHOCYTE / ABSOLUTE MONOCYTE / ABSOLUTE SEGMENTED NEUTROPHIL / BASOPHIL / EOSINOPHIL / ERYTHROCYTE COUNT / HEMATOCRIT / HEMOGLOBIN / LEUKOCYTE COUNT / LYMPHOCYTE / MEAN CORPUSCULAR HEMOGLOBIN / MEAN CORPUSCULAR HEMOGLOBIN CONCENTRATION / MEAN CORPUSCULAR VOLUME / MONOCYTE / NEUTROPHIL / NUCLEATED RED BLOOD CELLS / PLATELET COUNT: tissue Blood; for ALANINE AMINOTRANSFERASE / ALBUMIN / ALKALINE PHOSPHATASE / ASPARTATE AMINOTRANSFERASE / BLOOD UREA NITROGEN / CARBON DIOXIDE / CHLORIDE / CHOLESTEROL / CREATINE PHOSPHOKINASE / CREATININE / GLUCOSE / LACTATE DEHYDROGENASE / LIPASE / PHOSPHORUS / POTASSIUM / SODIUM / TOTAL BILIRUBIN / TOTAL PROTEIN / URIC ACID: tissue Plasma
# [1] = 0 mg/kg, 72 h, dose level Control, time 3 day
# [2] = 0 mg/kg, 120 h, dose level Control, time 5 day
# [3] = […], 72 h, dose 0.24 mg/Kg, dose level Low, time 3 day
# [4] = […], 72 h, dose 2.5 mg/Kg, dose level High, time 3 day
smiles,measurement,setting,value
CC[C@@]1(O)C(=O)OCc2c1cc1n(c2=O)Cc2cc3ccccc3nc2-1 [CAMPTOTHECIN],ABSOLUTE BASOPHIL,[1],0 CELLS/uL
same,ABSOLUTE EOSINOPHIL,[1],21.67 CELLS/uL
same,ABSOLUTE LYMPHOCYTE,[1],10193.67 CELLS/uL
same,ABSOLUTE MONOCYTE,[1],165.83 CELLS/uL
same,ABSOLUTE SEGMENTED NEUTROPHIL,[1],702.17 CELLS/uL
same,BASOPHIL,[1],0%
same,EOSINOPHIL,[1],0.17%
same,ERYTHROCYTE COUNT,[1],5.39 x10E6/uL
same,HEMATOCRIT,[1],34.62%
same,HEMOGLOBIN,[1],13.8 G/DL
same,LEUKOCYTE COUNT,[1],11.08 x10E3/uL
same,LYMPHOCYTE,[1],91.83%
same,MEAN CORPUSCULAR HEMOGLOBIN,[1],25.68 pg
same,MEAN CORPUSCULAR HEMOGLOBIN CONCENTRATION,[1],39.9 G/DL
same,MEAN CORPUSCULAR VOLUME,[1],64.37 fL
same,MONOCYTE,[1],1.5%
same,NEUTROPHIL,[1],6.5%
same,NUCLEATED RED BLOOD CELLS,[1],0 /100WBC
same,PLATELET COUNT,[1],1202.83 x10E3/uL
same,ALANINE AMINOTRANSFERASE,[1],55.5 u/L
same,ALBUMIN,[1],4.22 G/DL
same,ALKALINE PHOSPHATASE,[1],406.83 u/L
same,ASPARTATE AMINOTRANSFERASE,[1],101.5 u/L
same,BLOOD UREA NITROGEN,[1],13.5 mg/dL
same,CARBON DIOXIDE,[1],30.33 mmol/L
same,CHLORIDE,[1],102.17 MEQ/L
same,CHOLESTEROL,[1],63.67 mg/dL
same,CREATINE PHOSPHOKINASE,[1],732.67 u/L
same,CREATININE,[1],0.2 mg/dL
same,GLUCOSE,[1],157 mg/dL
same,LACTATE DEHYDROGENASE,[1],442.5 u/L
same,LIPASE,[1],10.83 u/L
same,PHOSPHORUS,[1],12.68 mg/dL
same,POTASSIUM,[1],5.67 MEQ/L
same,SODIUM,[1],144 MEQ/L
same,TOTAL BILIRUBIN,[1],0.15 mg/dL
same,TOTAL PROTEIN,[1],6.02 G/DL
same,URIC ACID,[1],1.55 mg/dL
same,ABSOLUTE BASOPHIL,[2],0 CELLS/uL
same,ABSOLUTE EOSINOPHIL,[2],17 CELLS/uL
same,ABSOLUTE LYMPHOCYTE,[2],11849.17 CELLS/uL
same,ABSOLUTE MONOCYTE,[2],69.83 CELLS/uL
same,ABSOLUTE SEGMENTED NEUTROPHIL,[2],730.67 CELLS/uL
same,BASOPHIL,[2],0%
same,EOSINOPHIL,[2],0.17%
same,ERYTHROCYTE COUNT,[2],5.93 x10E6/uL
same,HEMATOCRIT,[2],37.42%
same,HEMOGLOBIN,[2],14.4 G/DL
same,LEUKOCYTE COUNT,[2],12.67 x10E3/uL
same,LYMPHOCYTE,[2],93.17%
same,MEAN CORPUSCULAR HEMOGLOBIN,[2],24.32 pg
same,MEAN CORPUSCULAR HEMOGLOBIN CONCENTRATION,[2],38.5 G/DL
same,MEAN CORPUSCULAR VOLUME,[2],63.08 fL
same,MONOCYTE,[2],0.5%
same,NEUTROPHIL,[2],6.17%
same,NUCLEATED RED BLOOD CELLS,[2],0 /100WBC
same,PLATELET COUNT,[2],1170.5 x10E3/uL
same,ALANINE AMINOTRANSFERASE,[2],51 u/L
same,ALBUMIN,[2],4.12 G/DL
same,ALKALINE PHOSPHATASE,[2],392.67 u/L
same,ASPARTATE AMINOTRANSFERASE,[2],81.67 u/L
same,BLOOD UREA NITROGEN,[2],16.17 mg/dL
same,CARBON DIOXIDE,[2],30.67 mmol/L
same,CHLORIDE,[2],100.5 MEQ/L
same,CHOLESTEROL,[2],64.83 mg/dL
same,CREATINE PHOSPHOKINASE,[2],242.67 u/L
same,CREATININE,[2],0.2 mg/dL
same,GLUCOSE,[2],186.83 mg/dL
same,LACTATE DEHYDROGENASE,[2],188 u/L
same,LIPASE,[2],10.83 u/L
same,PHOSPHORUS,[2],11.67 mg/dL
same,POTASSIUM,[2],5.51 MEQ/L
same,SODIUM,[2],142.55 MEQ/L
same,TOTAL BILIRUBIN,[2],0.22 mg/dL
same,TOTAL PROTEIN,[2],6.08 G/DL
same,URIC ACID,[2],1.85 mg/dL
same,ABSOLUTE BASOPHIL,[3],0 CELLS/uL
same,ABSOLUTE EOSINOPHIL,[3],41.67 CELLS/uL
same,ABSOLUTE LYMPHOCYTE,[3],12074 CELLS/uL
same,ABSOLUTE MONOCYTE,[3],83.33 CELLS/uL
same,ABSOLUTE SEGMENTED NEUTROPHIL,[3],834.33 CELLS/uL
same,BASOPHIL,[3],0%
same,EOSINOPHIL,[3],0.33%
same,ERYTHROCYTE COUNT,[3],5.45 x10E6/uL
same,HEMATOCRIT,[3],34.8%
same,HEMOGLOBIN,[3],13.63 G/DL
same,LEUKOCYTE COUNT,[3],13.03 x10E3/uL
same,LYMPHOCYTE,[3],92.67%
same,MEAN CORPUSCULAR HEMOGLOBIN,[3],25.13 pg
same,MEAN CORPUSCULAR HEMOGLOBIN CONCENTRATION,[3],39.23 G/DL
same,MEAN CORPUSCULAR VOLUME,[3],63.97 fL
same,MONOCYTE,[3],0.67%
same,NEUTROPHIL,[3],6.33%
same,NUCLEATED RED BLOOD CELLS,[3],0 /100WBC
same,PLATELET COUNT,[3],732.67 x10E3/uL
same,ABSOLUTE BASOPHIL,[4],0 CELLS/uL
same,ABSOLUTE EOSINOPHIL,[4],0 CELLS/uL
same,ABSOLUTE LYMPHOCYTE,[4],9985 CELLS/uL
same,ABSOLUTE MONOCYTE,[4],46 CELLS/uL
same,ABSOLUTE SEGMENTED NEUTROPHIL,[4],602.33 CELLS/uL
same,BASOPHIL,[4],0%
same,EOSINOPHIL,[4],0%
same,ERYTHROCYTE COUNT,[4],5.09 x10E6/uL
same,HEMATOCRIT,[4],32.33%
same,HEMOGLOBIN,[4],13.2 G/DL
same,LEUKOCYTE COUNT,[4],10.63 x10E3/uL
same,LYMPHOCYTE,[4],94%
same,MEAN CORPUSCULAR HEMOGLOBIN,[4],25.93 pg
same,MEAN CORPUSCULAR HEMOGLOBIN CONCENTRATION,[4],40.87 G/DL
same,MEAN CORPUSCULAR VOLUME,[4],63.53 fL
same,MONOCYTE,[4],0.33%
same,NEUTROPHIL,[4],5.67%
same,NUCLEATED RED BLOOD CELLS,[4],0 /100WBC
same,PLATELET COUNT,[4],1247.67 x10E3/uL
